# Test results as given in ChEMBL document CHEMBL4420077, “Synaptojanin-2 inhibitors and uses thereof” (2015).
# The source made the active and inactive calls. The rule behind the calls is not given here.
# Tested on: MDA-MB-231
# Conditions: Homo sapiens, 10 uM
row,Compound,inhibition
1,Cc1cc(=O)c2c(O)cc(O)c([C@@H]3O[C@H](CO)[C@@H](O)[C@H](O)[C@H]3O)c2o1,Active
2,COc1cc(C2c3c(cc(OC)c(O)c3OC)CC(CO)C2COC2OCC(O)C(O)C2O)cc(OC)c1O (configuration not stated),Active
3,O=C1C[C@@H](c2ccc(O)c(O)c2)Oc2cc(O[C@@H]3O[C@H](CO)[C@@H](O)[C@H](O)[C@H]3O)cc(O)c21,Active
4,COc1cc(O)cc(O)c1C(=O)c1ccc(O)c(O)c1,Active
5,Cc1c(O)cc2c(c1O)C(=O)[C@H](O)[C@@H](c1ccc(O)c(O)c1)O2,Active
6,C/C(=C\CO[C@@H]1O[C@H](CO)[C@@H](O)[C@H](O)[C@H]1O)C(O)CCC(C)(C)O (some centres not stated),Active

# Tested on: MDA-MB-231
# Conditions: Homo sapiens, 5 mg/kg
# Description: Antitumor activity against GFP-expressing human MDA-MB-231 cells xenografted in SCID mouse assessed as reduction in tumor lung micro-metastasis at 5 mg/kg injected twice per week for 6 weeks
row,Compound,inhibition
1,O=C(O)CC(CCc1ccccc1)O[C@H]1O[C@@H](CO)[C@H](O)[C@@H](O)[C@@H]1O (some centres not stated),Active
